pIC50: −log10 of the molar value.
target: T1, human DGAT1 enzyme (Homo sapiens, UniProt O75907); assay: in vitro DGAT1 inhibition assay (microsomes, [14C]-palmitoyl-CoA, SPA beads)
T1 sequence (O75907 1-488): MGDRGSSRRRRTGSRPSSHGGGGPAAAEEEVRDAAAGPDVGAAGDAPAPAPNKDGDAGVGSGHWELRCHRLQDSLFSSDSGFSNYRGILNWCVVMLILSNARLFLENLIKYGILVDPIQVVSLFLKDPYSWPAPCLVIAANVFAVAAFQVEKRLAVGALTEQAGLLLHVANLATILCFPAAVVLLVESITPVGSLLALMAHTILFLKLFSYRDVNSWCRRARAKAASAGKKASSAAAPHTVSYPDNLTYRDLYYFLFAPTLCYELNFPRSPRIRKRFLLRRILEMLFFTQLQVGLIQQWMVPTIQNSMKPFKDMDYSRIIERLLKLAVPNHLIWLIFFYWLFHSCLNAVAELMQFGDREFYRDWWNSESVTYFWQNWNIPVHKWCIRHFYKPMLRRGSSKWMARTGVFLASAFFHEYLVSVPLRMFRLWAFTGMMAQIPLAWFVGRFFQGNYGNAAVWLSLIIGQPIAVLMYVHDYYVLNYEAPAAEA
Experimental: The in vitro assay to identify DGAT1 inhibitors uses human DGAT1 enzyme expressed in Sf9 insect cells prepared as microsomes. The reaction is initiated by the addition of the combined substrates 1,2-dioleoyl-sn-glycerol and [^14C]-palmitoyl-Co A and incubated with test compounds and microsomal membranes for 2 hours at room temperature. The assay is stopped by adding 0.5 mg wheat germ agglutinin beads in assay buffer with 1% Brij-35 and 1% 3-cholamidopropyldimethyl-ammonio-1-propane sulfonate. Plates are sealed with TopSeal and incubated for 18 hours to allow the radioactive triglyceride product to come into proximity with the bead. Plates are read on a TopCount instrument.
Percent inhibition was calculated as the percent of (test compound inhibition minus non-specific binding) relative to (total binding minus non-specific binding). IC50 values were determined by curve fitting the data to a Sigmoidal dose-response in GraphPad Prism utilizing the following equation: Y=A+(B−A)/(1+10^((Log IC50−X))), where A and B are the bottom and top of the curve (highest and lowest inhibition), respectively, and X is the logarithm of concentration.

Row | SMILES | pIC50
1 | CCOC(=O)c1nnc2n1CCN(c1ccc(NC(=O)c3oc(N4CCC(c5ccccc5)CC4)nc3C(F)(F)F)cn1)C2 [Compound 216, Ethyl 5,6,7,8-tetrahydro-7-[5-[[[2-(4-phenyl-1-piperidinyl)-4-(trifluoromethyl)-5-oxazolyl]carbonyl]amino]-2-pyridinyl]-1,2,4-triazolo[4,3-a]pyrazine-3-carboxylate] | 6.30 to 7.00
2 | CC1CCCN(c2nc(C(F)(F)F)c(C(=O)Nc3ccc(N4CCc5c(cccc5C(=O)O)C4)nc3)o2)C1 (stereo not shown) [Compound 168, 2-(5-(2-(3-methylpiperidin-1-yl)-4-(trifluoromethyl)oxazole-5-carboxamido)pyridin-2-yl)-1,2,3,4-tetrahydroisoquinoline-5-carboxylic acid] | 6.30 to 7.00
3 | O=C(Nc1ccc(N2CCN(C(=O)C3Cc4ccccc4C3)CC2)nc1)c1oc(N2CCC(c3ccccc3)CC2)nc1C(F)(F)F [Compound 244, N-(6-(4-(2,3-dihydro-1H-indene-2-carbonyl)piperazin-1-yl)pyridin-3-yl)-2-(4-phenylpiperidin-1-yl)-4-(trifluoromethyl)oxazole-5-carboxamide] | 6.30 to 7.00
4 | CC1CCCN(c2nc(C(F)(F)F)c(C(=O)Nc3ccc(N4CCN(C(=O)C(O)C(F)(F)F)CC4)nc3)o2)C1 (stereo not shown) [Compound 194, 2-(3-methylpiperidin-1-yl)-N-(6-(4-(3,3,3-trifluoro-2-hydroxypropanoyl)piperazin-1-yl)pyridin-3-yl)-4-(trifluoromethyl)oxazole-5-carboxamide] | 7.00 to 7.96
5 | N#C/N=C(/N1CCCC1)N1CCN(c2ccc(NC(=O)c3oc(N4CCC(c5ccccc5)CC4)nc3C(F)(F)F)cn2)CC1 [Compound 182, (Z)—N-(6-(4-((cyanoimino)(pyrrolidin-1-yl)methyl)piperazin-1-yl)pyridin-3-yl)-2-(4-phenylpiperidin-1-yl)-4-(trifluoromethyl)oxazole-5-carboxamide] | 6.30 to 7.00

Next, values leading:

Row | pIC50 | SMILES
6 | 7.00 to 7.96 | O=C(Nc1ccc(N2CCN(C(=O)Cc3c(F)cccc3F)CC2)nc1)c1oc(N2CCC(c3ccccc3)CC2)nc1C(F)(F)F [Compound 229, N-(6-(4-(2-(2,6-difluorophenyl)acetyl)piperazin-1-yl)pyridin-3-yl)-2-(4-phenylpiperidin-1-yl)-4-(trifluoromethyl)oxazole-5-carboxamide]
7 | 6.30 to 7.00 | O=C(Nc1ccc(N2CCN(C(=O)C3NCCc4ccccc43)CC2)nc1)c1oc(N2CCC(c3ccccc3)CC2)nc1C(F)(F)F (stereo not shown) [Compound 242, 2-(4-phenylpiperidin-1-yl)-N-(6-(4-(1,2,3,4-tetrahydroisoquinoline-1-carbonyl)piperazin-1-yl)pyridin-3-yl)-4-(trifluoromethyl)oxazole-5-carboxamide]
8 | 7.00 to 7.96 | CC1CCCN(c2nc(C(F)(F)F)c(C(=O)Nc3ccc(N4CCN(c5ccccn5)CC4)nc3)o2)C1 (stereo not shown) [Compound 169, 2-(3-methylpiperidin-1-yl)-N-(6-(4-(pyridin-2-yl)piperazin-1-yl)pyridin-3-yl)-4-(trifluoromethyl)oxazole-5-carboxamide]
9 | 6.30 to 7.00 | Cc1ccccc1NC(=O)c1ccc2c(c1)Cc1cc(NC(=O)c3oc(N4CCCC(C)C4)nc3C(F)(F)F)ccc1-2 (stereo not shown) [Compound 235, 2-(3-methylpiperidin-1-yl)-N-(7-(o-tolylcarbamoyl)-9H-fluoren-2-yl)-4-(trifluoromethyl)oxazole-5-carboxamide]
10 | 7.00 to 7.96 | O=C(O)c1cccc(OCC2CCN(c3ccc(NC(=O)c4oc(N5CCC(c6ccccc6)CC5)nc4C(F)(F)F)cn3)CC2)c1 [Compound 264, 3-((1-(5-(2-(4-phenylpiperidin-1-yl)-4-(trifluoromethyl)oxazole-5-carboxamido)pyridin-2-yl)piperidin-4-yl)methoxy)benzoic acid]
11 | 7.00 to 7.96 | O=C(Nc1ccc(N2CCCN(C(=O)C(O)c3cc(F)cc(F)c3)CC2)nc1)c1oc(N2CCC(c3ccccc3)CC2)nc1C(F)(F)F (stereo not shown) [Compound 202, N-(6-(4-(2-(3,5-difluorophenyl)-2-hydroxyacetyl)-1,4-diazepan-1-yl)pyridin-3-yl)-2-(4-phenylpiperidin-1-yl)-4-(trifluoromethyl)oxazole-5-carboxamide]
12 | 7.00 to 7.96 | CC1CCCN(c2nc(C(F)(F)F)c(C(=O)Nc3ccc(N4CCC(OCc5ccccc5C(=O)O)CC4)nc3)o2)C1 (stereo not shown) [Compound 255, 2-((1-(5-(2-(3-methylpiperidin-1-yl)-4-(trifluoromethyl)oxazole-5-carboxamido)pyridin-2-yl)piperidin-4-yloxy)methyl)benzoic acid]
13 | 7.00 to 7.96 | CC1CCCN(c2nc(C(F)(F)F)c(C(=O)Nc3ccc(N4CCC(OCc5cccc(C(=O)O)c5)CC4)nc3)o2)C1 (stereo not shown) [Compound 254, 3-((1-(5-(2-(3-methylpiperidin-1-yl)-4-(trifluoromethyl)oxazole-5-carboxamido)pyridin-2-yl)piperidin-4-yloxy)methyl)benzoic acid]

Source: US8716312B2, “Inhibitors of diacylglycerol acyltransferase” (Merck Sharp & Dohme Corporation, priority 2008, dated 2014)
